Results: PubChem BioAssay AID248 (DTP/NCI, 2004)
“And” between values parts separate entries of the source, which are not always exact repeats. Identical values can stand only once. Inconclusive results and toxic doses are left out. No stated cut-off is given here; in the data, active means T/C of 150% or more; inactive means T/C below 125%.

Test system: L1210 leukemia ip in BDF1 mice, survival T/C
Experiment: NCI In Vivo Anticancer Drug Screen. Data for tumor model L1210 Leukemia (intraperitoneal) in B6D2F1 (BDF1) mice
Conditions: endpoint: mean survival time, higher = longer survival
Summary of the method: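 Each compound was tested against a transplantable tumor grown in mice. The endpoint was survival, with treated animals benchmarked against vehicle controls as a simple ratio.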

[1] = dose: 100.0 mg/kg/injection, schedule: Q01DX009 (ip), vehicle: Klucel (hydroxypropylcellulose) (HPC)
[2] = dose: 100.0 mg/kg/injection, schedule: Q04DX003 (ip), vehicle: Klucel (hydroxypropylcellulose) (HPC)
[3] = dose: 200.0 mg/kg/injection, schedule: Q01DX009 (ip), vehicle: Klucel (hydroxypropylcellulose) (HPC)
[4] = dose: 200.0 mg/kg/injection, schedule: Q04DX003 (ip), vehicle: Klucel (hydroxypropylcellulose) (HPC)
[5] = dose: 400.0 mg/kg/injection, schedule: Q01DX009 (ip), vehicle: Klucel (hydroxypropylcellulose) (HPC)
[6] = dose: 400.0 mg/kg/injection, schedule: Q04DX003 (ip), vehicle: Klucel (hydroxypropylcellulose) (HPC)

Measured: T/C

C[n+]1c(-c2ccc(Cl)cc2Cl)c2cc(N)ccc2c2ccccc21
inactive: dose: 3.12 mg/kg/injection, schedule: Q01DX009 (ip), vehicle: water 100 % of control | dose: 6.25 mg/kg/injection, schedule: Q01DX009 (ip), vehicle: water 91 % of control | dose: 12.5 mg/kg/injection, schedule: Q01DX009 (ip), vehicle: water 102 % of control and 105 % of control | dose: 12.5 mg/kg/injection, schedule: Q04DX003 (ip), vehicle: water 100 % of control | dose: 25.0 mg/kg/injection, schedule: Q01DX009 (ip), vehicle: water 120 % of control and 86 % of control | dose: 25.0 mg/kg/injection, schedule: Q04DX003 (ip), vehicle: water 90 % of control

Cc1cc(Oc2ccc(Cl)cc2NC(=O)Nc2ccc(Cl)c(Cl)c2)c(S(=O)(=O)O)cc1Cl
inactive: dose: 12.5 mg/kg/injection, schedule: Q04DX003 (ip), vehicle: saline 103 % of control | dose: 25.0 mg/kg/injection, schedule: Q01DX009 (ip), vehicle: saline 103 % of control | dose: 25.0 mg/kg/injection, schedule: Q04DX003 (ip), vehicle: saline 105 % of control | dose: 50.0 mg/kg/injection, schedule: Q01DX009 (ip), vehicle: saline 95 % of control | dose: 50.0 mg/kg/injection, schedule: Q04DX003 (ip), vehicle: saline 103 % of control | dose: 100.0 mg/kg/injection, schedule: Q01DX009 (ip), vehicle: saline 101 % of control | dose: 100.0 mg/kg/injection, schedule: Q04DX003 (ip), vehicle: saline 97 % of control

O=C1CC2(CCCCC2)C(=O)N1N1CCCCCC1
inactive: dose: 100.0 mg/kg/injection, schedule: Q01DX001 (ip), vehicle: Klucel (hydroxypropylcellulose) (HPC) 102 % of control | dose: 200.0 mg/kg/injection, schedule: Q01DX001 (ip), vehicle: Klucel (hydroxypropylcellulose) (HPC) 100 % of control | dose: 400.0 mg/kg/injection, schedule: Q01DX001 (ip), vehicle: Klucel (hydroxypropylcellulose) (HPC) 97 % of control

CCCCC/C(=C\c1ccccc1)C1OCC(CCl)O1 (stereo not given)
inactive: dose: 222.0 mg/kg/injection, schedule: Q01DX Z (ip), vehicle: saline 100 % of control | dose: 333.0 mg/kg/injection, schedule: Q01DX Z (ip), vehicle: saline 100 % of control | dose: 500.0 mg/kg/injection, schedule: Q01DX Z (ip), vehicle: saline 109 % of control

CCN(CCCl)c1ccc(N=Nc2cc(Cl)ccc2Cl)cc1
inactive: [1] 103 % of control | [2] 104 % of control | [3] 115 % of control | [4] 97 % of control | [5] 105 % of control | [6] 104 % of control

COc1ccc2c(c1)C(=O)CCC2(C)C
inactive: dose: 50.0 mg/kg/injection, schedule: Q01DX009 (ip), vehicle: saline with Tween-80 100 % of control | dose: 100.0 mg/kg/injection, schedule: Q01DX009 (ip), vehicle: saline with Tween-80 86 % of control | dose: 200.0 mg/kg/injection, schedule: Q01DX009 (ip), vehicle: saline with Tween-80 105 % of control

CCOC(=O)c1cc(/C=C/c2ccccc2)[nH]c(=O)c1C#N
inactive: [1] 98 % of control | [2] 95 % of control | [3] 97 % of control | [4] 93 % of control | [5] 98 % of control | [6] 90 % of control

O=C1NC(=O)C(Cc2ccccc2)(Cc2ccccc2)C(=O)N1Cc1ccccc1
inactive: dose: 100.0 mg/kg/injection, schedule: Q01DX001 (ip), vehicle: carboxymethylcellulose (CMC) 90 % of control | dose: 200.0 mg/kg/injection, schedule: Q01DX001 (ip), vehicle: carboxymethylcellulose (CMC) 90 % of control | dose: 400.0 mg/kg/injection, schedule: Q01DX001 (ip), vehicle: carboxymethylcellulose (CMC) 98 % of control

C=CC1C(C(=O)Nc2ccccc2)CN1C (stereo not given)
inactive: dose: 100.0 mg/kg/injection, schedule: Q04DX003 (ip), vehicle: saline with Tween-80 107 % of control | dose: 200.0 mg/kg/injection, schedule: Q04DX003 (ip), vehicle: saline with Tween-80 107 % of control | dose: 400.0 mg/kg/injection, schedule: Q04DX003 (ip), vehicle: saline with Tween-80 116 % of control
